The values below come from patent US11000033B2, “Ketone or oxime compound, and herbicide” (NISSAN CHEMICAL CORPORATION, priority 2014, dated 2021).

Holding throughout (format): in vivo
For data set [1], the system named is Alopecurus myosuroides. In words: Test Example 4: herbicidal effect by soil treatment (symbol J). The note with it: application herbicide amount 320 g/ha. The method, boiled down: (§1)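 Seeds were sown in sterilized diluvial soil, covered with about 1.5 cm of soil, and the soil surface was sprayed with a water-diluted emulsion of the compound at a predetermined rate. Plants grew in a greenhouse at 25° C. to 30° C.; effects were scored visually 3 weeks after application.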

The next data set relates to Amaranthus retroflexus. In words: Test Example 5: herbicidal effect by foliage application, plastic box (symbol N). The note with it: 320 g/ha, 3 weeks after application. The method, boiled down: (§2)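 Effect is rated 3 weeks after a foliar spray of water-diluted emulsion concentrate at a predetermined herbicide amount. Plants had grown 14 days in a 25° C. to 30° C. greenhouse from seed in sterilized diluvial soil.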

In the next data set the test system is Monochoria vaginalis. In words: Test Example 2: herbicidal activity, application during weed generation in submerged conditions (symbol C). The settings on record: Table 23; application herbicide amount 320 g/ha; grade 0-5 by criteria of Test Example 1. The method, boiled down:
(§3)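 Seeds sown in flooded alluvial soil (4 cm water) were grown in a 25-30° C greenhouse. At the one- to two-leaf stage, diluted emulsion of compound was applied to the water surface at a predetermined rate. Effect was scored 3 weeks later.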

The subject of the next data set is Chenopodium album. In words: Test Example 5: herbicidal effect by foliage application, plastic box (symbol O). The note with it: 320 g/ha, 3 weeks after application. The method, boiled down:
as §2

Another data set has as its system rice. In words: Test Example 4: effect on crop by soil treatment (symbol b). The note with it: application herbicide amount 320 g/ha. A digest of the protocol:
(§4)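 Greenhouse culture at 25° C. to 30° C. followed sowing of seed in spots on sterilized diluvial soil with a soil cover close to 1.5 cm thick.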

The next data set deals with Lolium multiflorum Lam. In words: Test Example 4: herbicidal effect by soil treatment (symbol K). The note with it: application herbicide amount 320 g/ha. A digest of the protocol:
as §1

Another data set relates to Veronica persica. In words: Test Example 4: herbicidal effect by soil treatment (symbol R). The note with it: application herbicide amount 320 g/ha. The method, boiled down:
as §1

In data set [2] the test system is Stellaria media. In words: Test Example 4: herbicidal effect by soil treatment (symbol P). The note with it: application herbicide amount 320 g/ha. The method, boiled down: as §1
A further data set has as its system Leptochloa chinensis. In words: Test Example 3: herbicidal effect by foliage application, Wagner pot (symbol D). The settings on record: application herbicide amount 320 g/ha, Table 24. A digest of the protocol: (§5)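 Plants sown in submerged alluvial soil (water depth 0.1–0.5 cm) in a 25–30 °C greenhouse and grown 14 days. An emulsion of the compound diluted in water to a set herbicide amount was sprayed uniformly on foliage. Effect on each plant scored 3 weeks after application.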

In another data set the test system is wheat. In words: Test Example 4: effect on crop by soil treatment (symbol e). The note with it: application herbicide amount 320 g/ha. The method, boiled down: as §4
In a further data set the test system is Scirpus juncoides. In words: Test Example 2: herbicidal activity, application during weed generation in submerged conditions (symbol B). The note with it: Table 23; application herbicide amount 320 g/ha; grade 0-5 by criteria of Test Example 1. A digest of the protocol:
as §3

For a further data set, the system named is Setaria viridis. In words: Test Example 4: herbicidal effect by soil treatment (symbol G). The note with it: application herbicide amount 320 g/ha. The method, boiled down: as §1
The next data set concerns rice plant. In words: Test Example 5: effect on crop by foliage application, plastic box (symbol b). The settings on record: 320 g/ha, 3 weeks after application. The method, boiled down: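 Crop and weed seeds sown in spots in sterilized diluvial soil in plastic boxes and covered with about 1.5 cm soil. Plants raised in a greenhouse at 25° C. to 30° C. for foliar application.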

The test system of the next data set is Digitaria ciliaris. In words: Test Example 4: herbicidal effect by soil treatment (symbol F). The note with it: application herbicide amount 320 g/ha. The method, boiled down: as §1
In data set [3] the test system is Echinochloa crus-galli var. crus-galli. In words: Test Example 3: herbicidal effect by foliage application, Wagner pot (symbol H). The note with it: application herbicide amount 320 g/ha, Table 24. The method, boiled down:
as §5

The next data set has as its system Avena fatua. In words: Test Example 4: herbicidal effect by soil treatment (symbol I). The note with it: application herbicide amount 320 g/ha. A digest of the protocol:
as §1

Data set [4] concerns Stellaria media. In words: Test Example 5: herbicidal effect by foliage application, plastic box (symbol P). The note with it: 320 g/ha, 3 weeks after application. The method, boiled down:
as §2

Data set [5] concerns Alopecurus myosuroides. In words: Test Example 5: herbicidal effect by foliage application, plastic box (symbol J). The settings on record: 320 g/ha, 3 weeks after application. A digest of the protocol: as §2
The subject of data set [6] is Echinochloa crus-galli var. crus-galli. In words: Test Example 5: herbicidal effect by foliage application, plastic box (symbol H). The settings on record: 320 g/ha, 3 weeks after application. The method, boiled down: as §2
The test system of data set [7] is Echinochloa oryzacola Vasing. In words: Test Example 2: herbicidal activity, application during weed generation in submerged conditions (symbol A). The note with it: Table 23; application herbicide amount 320 g/ha; grade 0-5 by criteria of Test Example 1. The method, boiled down:
as §3

For the compound `CON=C(CC1CC(O)=C(c2c(C)cc(-c3ccccc3)cc2C)C1=O)C1CC1` (mixture of isomers) [9-028], in the data set with Alopecurus myosuroides [1], the “Herbicidal effect grade, J: Alopecurus myosuroides” value (“Herbicidal effect grade, J” below) is recorded as 5 (Herbicidal ratio of 90% or more (almost completely withered)). Besides, the “N: Amaranthus retroflexus, herbicidal effect grade” value (from here on “N: Amaranthus retroflexus”) in the data set on Amaranthus retroflexus was 1 (Herbicidal ratio of 5% or higher and lower than 20%). For the same compound, the “Herbicidal effect grade, C: Monochoria vaginalis” value (“Herbicidal effect grade, C” below) in the data set with Monochoria vaginalis was 4 (Herbicidal ratio of 70% or higher and lower than 90%). For the same compound, the “O: Chenopodium album, herbicidal effect grade” value (from here on “O: Chenopodium album”) in the data set with Chenopodium album is 2 (Herbicidal ratio of 20% or higher and lower than 40%). The “Effect on crop grade, b: directly sowed rice plant” value (shortened to “Effect on crop grade, b”) with rice is 3 (Herbicidal ratio of 40% or higher and lower than 70%). Also, the “Herbicidal effect grade, K: Lolium multiflorum Lam.” value (shortened to “Herbicidal effect grade, K”) with Lolium multiflorum Lam. was 5 (Herbicidal ratio of 90% or more (almost completely withered)). The “Herbicidal effect grade, R: Veronica persica” value (from here on “Herbicidal effect grade, R”) with Veronica persica is on record as 0 (Herbicidal ratio of 5% or lower (almost no effect)). Further, the “Herbicidal effect grade, P: Stellaria media” value (shortened to “Herbicidal effect grade, P”) with Stellaria media [2] is 0 (Herbicidal ratio of 5% or lower (almost no effect)). Moreover, in the data set with Leptochloa chinensis, the “D (Leptochloa chinensis) herbicidal effect grade” value is recorded as 5 (Herbicidal ratio of 90% or more (almost completely withered)). The “Effect on crop grade, e: wheat” value in the data set with wheat is 3 (Herbicidal ratio of 40% or higher and lower than 70%). The “Herbicidal effect grade, B: Scirpus juncoides” value (from here on “Herbicidal effect grade, B”) in the data set on Scirpus juncoides was 4 (Herbicidal ratio of 70% or higher and lower than 90%). In addition, in the data set with Setaria viridis, the “Herbicidal effect grade, G: Setaria viridis” value (“Herbicidal effect grade, G” for short) was 5 (Herbicidal ratio of 90% or more (almost completely withered)). The “b: directly sowed rice plant, effect on crop grade” value in the data set with rice plant is on record as 5 (Herbicidal ratio of 90% or more (almost completely withered)). The “Herbicidal effect grade, F: Digitaria ciliaris” value (“Herbicidal effect grade, F” for short) in the data set with Digitaria ciliaris was 5 (Herbicidal ratio of 90% or more (almost completely withered)). Also, in data set [3], the “H (Echinochloa crus-galli var. crus-galli) herbicidal effect grade” value is on record as 5 (Herbicidal ratio of 90% or more (almost completely withered)). Further, the “Herbicidal effect grade, I: Avena fatua” value with Avena fatua is 3 (Herbicidal ratio of 40% or higher and lower than 70%). Further, the “P: Stellaria media, herbicidal effect grade” value in the data set with Stellaria media [4] was 3 (Herbicidal ratio of 40% or higher and lower than 70%). Also, the “J: Alopecurus myosuroides, herbicidal effect grade” value in the data set on Alopecurus myosuroides [5] is listed as 5 (Herbicidal ratio of 90% or more (almost completely withered)). Besides, in data set [6], the “H: Echinochloa crus-galli var. crus-galli, herbicidal effect grade” value was 5 (Herbicidal ratio of 90% or more (almost completely withered)). The “Herbicidal effect grade, A: Echinochloa oryzacola Vasing.” value in [7] was 5 (Herbicidal ratio of 90% or more (almost completely withered)).
On to `COC(=O)C(C(=O)C1CC1)C1CC(O)=C(c2c(C)cc(Br)cc2C)C1=O` (mixture of isomers) [10-002], for which the “Herbicidal effect grade, J” value in the data set with Alopecurus myosuroides [1] is 0 (Herbicidal ratio of 5% or lower (almost no effect)). Further, in the data set on Amaranthus retroflexus, the “N: Amaranthus retroflexus” value was 0 (Herbicidal ratio of 5% or lower (almost no effect)). For the same compound, in the data set on Monochoria vaginalis, the “Herbicidal effect grade, C” value is recorded as 0 (Herbicidal ratio of 5% or lower (almost no effect)). Moreover, in the data set on Chenopodium album, the “O: Chenopodium album” value is 0 (Herbicidal ratio of 5% or lower (almost no effect)). The “Effect on crop grade, b” value in the data set on rice was 4 (Herbicidal ratio of 70% or higher and lower than 90%). The “Herbicidal effect grade, K” value with Lolium multiflorum Lam. is 4 (Herbicidal ratio of 70% or higher and lower than 90%). In addition, the “Herbicidal effect grade, R” value in the data set on Veronica persica was 0 (Herbicidal ratio of 5% or lower (almost no effect)). For the same compound, in the data set on Stellaria media [2], the “Herbicidal effect grade, P” value is on record as 0 (Herbicidal ratio of 5% or lower (almost no effect)). Further, the “D (Leptochloa chinensis) herbicidal effect grade” value with Leptochloa chinensis is 5 (Herbicidal ratio of 90% or more (almost completely withered)). The “Effect on crop grade, e: wheat” value in the data set on wheat is recorded as 0 (Herbicidal ratio of 5% or lower (almost no effect)). Moreover, the “Herbicidal effect grade, B” value in the data set with Scirpus juncoides is 0 (Herbicidal ratio of 5% or lower (almost no effect)). Besides, the “Herbicidal effect grade, G” value in the data set with Setaria viridis is 4 (Herbicidal ratio of 70% or higher and lower than 90%). Besides, in the data set with rice plant, the “b: directly sowed rice plant, effect on crop grade” value was 4 (Herbicidal ratio of 70% or higher and lower than 90%). Also, the “Herbicidal effect grade, F” value with Digitaria ciliaris is 4 (Herbicidal ratio of 70% or higher and lower than 90%). For the same compound, the “H (Echinochloa crus-galli var. crus-galli) herbicidal effect grade” value in [3] was 5 (Herbicidal ratio of 90% or more (almost completely withered)). In addition, the “Herbicidal effect grade, I: Avena fatua” value in the data set on Avena fatua was 3 (Herbicidal ratio of 40% or higher and lower than 70%). For the same compound, in the data set with Stellaria media [4], the “P: Stellaria media, herbicidal effect grade” value is 0 (Herbicidal ratio of 5% or lower (almost no effect)). In addition, the “J: Alopecurus myosuroides, herbicidal effect grade” value in the data set on Alopecurus myosuroides [5] is 4 (Herbicidal ratio of 70% or higher and lower than 90%). For the same compound, the “H: Echinochloa crus-galli var. crus-galli, herbicidal effect grade” value in data set [6] was 5 (Herbicidal ratio of 90% or more (almost completely withered)). Besides, the “Herbicidal effect grade, A: Echinochloa oryzacola Vasing.” value in [7] was 1 (Herbicidal ratio of 5% or higher and lower than 20%).
Regarding `CON=C(C)CC1(C)CC(O)=C(c2c(C)cc(C)cc2C)C1=O` (mixture of isomers) [11-002], in the data set on Alopecurus myosuroides [1], the “Herbicidal effect grade, J” value was 3 (Herbicidal ratio of 40% or higher and lower than 70%). In the data set on Amaranthus retroflexus, the “N: Amaranthus retroflexus” value is 0 (Herbicidal ratio of 5% or lower (almost no effect)). Further, the “Herbicidal effect grade, C” value in the data set with Monochoria vaginalis is reported as 0 (Herbicidal ratio of 5% or lower (almost no effect)). For the same compound, in the data set on Chenopodium album, the “O: Chenopodium album” value is reported as 0 (Herbicidal ratio of 5% or lower (almost no effect)). The “Effect on crop grade, b” value in the data set with rice is 4 (Herbicidal ratio of 70% or higher and lower than 90%). For the same compound, the “Herbicidal effect grade, K” value with Lolium multiflorum Lam. is on record as 5 (Herbicidal ratio of 90% or more (almost completely withered)). For the same compound, in the data set on Veronica persica, the “Herbicidal effect grade, R” value was 0 (Herbicidal ratio of 5% or lower (almost no effect)). For the same compound, in the data set with Stellaria media [2], the “Herbicidal effect grade, P” value is 0 (Herbicidal ratio of 5% or lower (almost no effect)). In the data set on Leptochloa chinensis, the “D (Leptochloa chinensis) herbicidal effect grade” value is 5 (Herbicidal ratio of 90% or more (almost completely withered)). In addition, the “Effect on crop grade, e: wheat” value in the data set on wheat is listed as 0 (Herbicidal ratio of 5% or lower (almost no effect)). In addition, the “Herbicidal effect grade, B” value in the data set with Scirpus juncoides is 0 (Herbicidal ratio of 5% or lower (almost no effect)). Further, the “Herbicidal effect grade, G” value in the data set on Setaria viridis is 1 (Herbicidal ratio of 5% or higher and lower than 20%). For the same compound, the “b: directly sowed rice plant, effect on crop grade” value with rice plant is given as 5 (Herbicidal ratio of 90% or more (almost completely withered)). Moreover, the “Herbicidal effect grade, F” value in the data set with Digitaria ciliaris was 0 (Herbicidal ratio of 5% or lower (almost no effect)). Moreover, in data set [3], the “H (Echinochloa crus-galli var. crus-galli) herbicidal effect grade” value was 5 (Herbicidal ratio of 90% or more (almost completely withered)). The “Herbicidal effect grade, I: Avena fatua” value with Avena fatua was 3 (Herbicidal ratio of 40% or higher and lower than 70%). In the data set with Stellaria media [4], the “P: Stellaria media, herbicidal effect grade” value is listed as 0 (Herbicidal ratio of 5% or lower (almost no effect)). For the same compound, the “J: Alopecurus myosuroides, herbicidal effect grade” value in the data set on Alopecurus myosuroides [5] is 5 (Herbicidal ratio of 90% or more (almost completely withered)). The “H: Echinochloa crus-galli var. crus-galli, herbicidal effect grade” value in [6] is reported as 5 (Herbicidal ratio of 90% or more (almost completely withered)). Moreover, the “Herbicidal effect grade, A: Echinochloa oryzacola Vasing.” value in [7] was 2 (Herbicidal ratio of 20% or higher and lower than 40%).
